{"source": "patent US8383619B2", "about": "“Pharmaceutical compounds” (Astex Therapeutics Limited, priority 2008, dated 2013)", "key": {"[1]": {"assay": "Tolerability, four consecutive daily doses", "format": "in vivo, mouse"}, "[2]": {"assay": "Liver homogenate stability", "format": "in vitro ADME", "settings": "1 μM, 37° C., 120 mins", "from_the_text": "(§1) The breakdown of a prodrug in vivo could occur in one or more of several different compartments including for example, but not limited to blood/plasma, liver, stomach, target tissue (e.g. tumour). The preferred location for optimum formation of the parent drug will depend on the disposition in vivo of the pro-drug and parent and an understanding of the optimum concentrations of each required in the circulation to maximise exposure to the active moiety in the target tissue. The potential for pro-drug molecules to deliver the active parent drug may be assessed in vitro by measuring the breakdown of a pro-drug in the presence of relevant body fluids. For the purpose of gaining a preliminary understanding of the stability of compounds of the invention to enzymatic hydrolysis in two such bodily compartments, compound turnover has been studied following incubation in whole blood and liver homogenate from mice and humans. The data obtained from these studies provide a preliminary understanding of which of the prodrugs are better able to deliver parent compound (i.e. are more rapidly broken down to parent compound) in these compartments. Further studies could also determine stability in other compartments (e.g. in the target tumours by measuring stability in tumour lysates).\nMouse livers were obtained from 20 male mice, strain: Balb/c from stock animals. Human liver tissue was obtained from 3 individuals sourced from a UK human tissue bank. The livers were stored frozen. The livers were defrosted and then homogenised to form a homogenate of approximately 30% (w/v) in phosphate buffer, 100 mM, pH 7.4 (referred to as ‘buffer’). Homogenates were kept on ice until use.\n(§2) Each incubation consisted of a volume of 1 mL. Test compound dosing solutions were then spiked into each homogenate at a final compound concentration of 1 μM. Incubations were performed in the atmosphere in a shaking water bath at 37° C.\n(§3) An aliquot of incubation samples was removed into an equal volume of ice-cold acetonitrile at various time points. Samples (whole blood/homogenate+acetonitrile) were centrifuged and aliquots of the supernatant were analysed by HPLC-MS/MS.\n(§4) The compound X (2,4-dihydroxy-5-isopropyl-phenyl)-[5-(4-methyl-piperazin-1-ylmethyl)-1,3-dihydro-isoindol-2-yl]-methanone) and the compounds of Examples 1 to 24 were incubated in both whole blood and liver homogenate by Quotient Bioresearch (Rushden, UK). The percentage remaining of parent compound following incubation in whole blood/liver homogenate from human and mouse are set out in the table below."}, "Whole blood stability": {"assay": "Whole blood stability", "format": "in vitro ADME", "settings": "1 μM, 37° C.", "from_the_text": "as §1\nFor these studies, human whole blood was collected from 3 male healthy volunteers in lithium heparin tubes. The blood was pooled and stored at room temperature for a maximum of 2 hours prior to initiation of incubations. Mouse blood was collected from 70 male mice, strain: Balb/c into lithium heparin tubes and pooled.\nas §2, §3, §4"}, "[3]": {"assay": "Mouse pharmacokinetics, oral gavage", "format": "in vivo, Balb/c mice", "settings": "compared with examples 16 and 11", "experimental": "Balb/c mice are dosed with a prodrug by oral gavage. A single administration of one of the 24 examples is given and a dose volume of 10 mL/kg is used for PO doses.\nBlood samples are collected in lithium heparin coated tubes at selected time points.\nPlasma is isolated by centrifugation and frozen before analysis.\nPlasma samples are prepared by liquid-liquid extraction with Acetonitrile containing internal standard. Quantification is by comparison with a standard calibration line constructed with each compound and using a LC-MS/MS method specific to each compound. Animals that had been dosed one of the 24 examples were analysed for prodrug and compound X (2,4-dihydroxy-5-isopropyl-phenyl)-[5-(4-methyl-piperazin-1-ylmethyl)-1,3-dihydro-isoindol-2-yl]-methanone). Pharmacokinetics parameters are calculated using WinNonLin® non compartmental analysis software.\nThe plasma AUC0.25-2 hrs after PO administration of selected examples are set out in the table below. For examples 16, 17 and 11, plasma AUC0.25-2 hrs was determined following a single dose of 120 μmoles/kg or 240 μmoles/kg."}}, "note": "Counter-ions that a name gives are not always drawn."}
{"compound": "CC(C)c1cc(C(=O)N2Cc3ccc(CN4CCN(C)CC4)cc3C2)c(OC(=O)N(C)C)cc1OC(=O)N(C)C", "note": "[Example 11, dimethyl-carbamic acid 5-dimethylcarbamoyloxy-2-isopropyl-4-[5-(4-methyl-piperazin-1-ylmethyl)-1,3-dihydro-isoindole-2-carbonyl]-phenyl ester]", "values": [{"measurement": "tolerability", "setting": "[1]; four consecutive daily doses at 240 μmoles/kg", "result": "well tolerated"}, {"measurement": "Percentage remaining Human Liver", "setting": "[2]", "result": 31, "unit": "%"}, {"measurement": "Percentage remaining Mouse Liver", "setting": "[2]", "result": 1, "unit": "%"}, {"measurement": "Percentage remaining Human blood", "setting": "Whole blood stability; 120 mins", "result": 93, "unit": "%"}, {"measurement": "Percentage remaining Mouse blood", "setting": "Whole blood stability; 120 mins", "result": 38, "unit": "%"}]}
{"compound": "CC(C)c1cc(C(=O)N2Cc3ccc(CN4CCN(C)CC4)cc3C2)c(O)cc1OC(=O)N(C)C", "note": "[Example 17, dimethyl-carbamic acid 5-hydroxy-2-isopropyl-4-[5-(4-methyl-piperazin-1-ylmethyl)-1,3-dihydro-isoindole-2-carbonyl]-phenyl ester]", "values": [{"measurement": "tolerability", "setting": "[1]; four consecutive daily doses at 120 μmoles/kg", "result": "well tolerated"}, {"measurement": "Percentage remaining Human Liver", "setting": "[2]", "result": 0, "unit": "%"}, {"measurement": "Percentage remaining Mouse Liver", "setting": "[2]", "result": 0, "unit": "%"}, {"measurement": "Percentage remaining Human blood", "setting": "Whole blood stability; 120 mins", "result": 90, "unit": "%"}, {"measurement": "Percentage remaining Mouse blood", "setting": "Whole blood stability; 120 mins", "result": 24, "unit": "%"}, {"measurement": "exposure of the active pharmaceutical agent relative to the starting dose", "setting": "[3]", "result": "optimal exposure of the active pharmaceutical agent relative to the starting dose"}]}
{"compound": "COCOc1cc(O)c(C(C)C)cc1C(=O)N1Cc2ccc(CN3CCN(C)CC3)cc2C1", "note": "[Example 7, [4-Hydroxy-5-isopropyl-2-(methoxymethyloxy)-phenyl]-[5-(4-methyl-piperazin-1-ylmethyl)-1,3-dihydro-isoindol-2-yl]-methanone]", "values": [{"measurement": "Percentage remaining Human Liver", "setting": "[2]", "result": 92, "unit": "%"}, {"measurement": "Percentage remaining Mouse Liver", "setting": "[2]", "result": 115, "unit": "%"}, {"measurement": "Percentage remaining Mouse blood", "setting": "Whole blood stability; 60 mins (footnote *)", "result": 104, "unit": "% *"}, {"measurement": "Percentage remaining Human blood", "setting": "Whole blood stability; 120 mins", "result": 109, "unit": "%"}]}
{"compound": "COCOc1cc(OCOC)c(C(C)C)cc1C(=O)N1Cc2ccc(CN3CCN(C)CC3)cc2C1", "note": "[Example 9, [5-Isopropyl-2,4-bis-(methoxymethyloxy)-phenyl]-[5-(4-methyl-piperazin-1-ylmethyl)-1,3-dihydro-isoindol-2-yl]-methanone]", "values": [{"measurement": "Percentage remaining Human Liver", "setting": "[2]", "result": 98, "unit": "%"}, {"measurement": "Percentage remaining Mouse Liver", "setting": "[2]", "result": 82, "unit": "%"}, {"measurement": "Percentage remaining Mouse blood", "setting": "Whole blood stability; 60 mins (footnote *)", "result": 105, "unit": "% *"}, {"measurement": "Percentage remaining Human blood", "setting": "Whole blood stability; 120 mins", "result": 111, "unit": "%"}]}
{"compound": "CC(C)c1cc(C(=O)N2Cc3ccc(CN4CCN(C)CC4)cc3C2)c(OC(=O)C(C)(C)C)cc1OC(=O)C(C)(C)C", "note": "[Example 24, 2,2-Dimethyl-propionic acid 5-(2,2-dimethyl-propionyloxy)-2-isopropyl-4-[5-(4-methyl-piperazin-1-ylmethyl)-1,3-dihydro-isoindole-2-carbonyl]-phenyl ester dihydrochloride]", "values": [{"measurement": "Percentage remaining Human Liver", "setting": "[2]", "result": 2, "unit": "%"}, {"measurement": "Percentage remaining Mouse Liver", "setting": "[2]", "result": 0, "unit": "%"}, {"measurement": "Percentage remaining Human blood", "setting": "Whole blood stability; 120 mins", "result": 11, "unit": "%"}, {"measurement": "Percentage remaining Mouse blood", "setting": "Whole blood stability; 120 mins", "result": 0, "unit": "%"}]}
{"compound": "COc1cc(OC)c(C(C)C)cc1C(=O)N1Cc2ccc(CN3CCN(C)CC3)cc2C1", "note": "[Example 3, (5-Isopropyl-2,4-dimethoxy-phenyl)-[5-(4-methyl-piperazin-1-ylmethyl)-1,3-dihydro-isoindol-2-yl]-methanone]", "values": [{"measurement": "Percentage remaining Human Liver", "setting": "[2]", "result": 79, "unit": "%"}, {"measurement": "Percentage remaining Mouse Liver", "setting": "[2]", "result": 93, "unit": "%"}, {"measurement": "Percentage remaining Human blood", "setting": "Whole blood stability; 120 mins", "result": 107, "unit": "%"}, {"measurement": "Percentage remaining Mouse blood", "setting": "Whole blood stability; 120 mins", "result": 100, "unit": "%"}]}
